# In patent publication US7608761B2, “Method for disease control in MON89788 soybean” (Monsanto Technology LLC, priority 2005, dated 2009):
# Legend:
# [1] = test system: Asian Soybean Rust (ASR) (Loxley Al isolate); assay: Growth chamber detached soybean leaf assay, ASR on MON89788; type: in vivo, Phakopsora sp.
# Experimental: Growth chamber and greenhouse assays were conducted to determine if glyphosate treatments (Roundup® WeatherMax) decreased the disease severity of Asian Soybean Rust (ASR) on MON89788. Growth chamber assays were conducted following a detached leaf assay method. Plants of MON89788 were grown in the greenhouse and leaves from the 3rd trifoliate were detached and placed in 6-well trays with water. Five treatments were evaluated: (1) an untreated check inoculated with spores of ASR (Loxley Al isolate); (2) leaf tissue of MON89788 inoculated with ASR spores and treated with glyphosate post-sporulation (13 days after inoculation with spores (DAI)); (3) MON89788 treated with 1× rate (0.75 lb/acre) of Roundup® WeatherMax 5 DAI; (4) MON89788 treated with […] of Roundup® WeatherMax 5 DAI; and (5) MON89788 treated with 3× rate of Roundup® WeatherMax 5 DAI.
# The leaves were rated for disease severity 12 DAI, 20 DAI, and 25 DAI.
# The analysis of the disease progression is illustrated in FIG. 2 and measured as the Area Under Disease Progress Curve (AUDPC) for the same material summarized in FIG. 1. […] The disease progression was reduced for all glyphosate treatments at 5DAI and the 2× rate post-sporulation.
# Asian Soybean Rust (ASR) = assay: Greenhouse assay on intact MON89788 plants, ASR; type: in vivo, Phakopsora sp.
# Experimental: Greenhouse assays on intact MON89788 plants were treated with 1×, 2×, and 3× rates of Roundup® WeatherMax at 6 DBI (days before inoculation) and 9 DAI. Results for this experiment were collected 17 DAI.
# [2] = test system: Aerial blight (Rhizoctonia solani); assay: Greenhouse disease severity on MON89788, Aerial blight; type: in vivo; details: for Aerial Blight disease severity (DS): 1-9 scale
# Experimental: (§1) Soybean plants comprising event MON89788 and grown under standard conditions in a greenhouse were treated with 1×, 2× or 3× concentrations of glyphosate and inoculated with the plant pathogens 1 DBI, 1 DAI and 4 DAI. Disease symptoms for each disease was rated on a 1-9 scale as an approximate measure of disease severity (DS)occurring on the leaves, 1 is no symptoms, 2 is up to 10% of the leaf infected, 3 is 11-20% of the leaf infected, 4 is 21-35%, 5 is 36-50%, 7 is 66-75%, 8 is 76-85%, 9 is greater than 85% of the leaf is infected and showing disease symptoms.
# [3] = test system: Cercospora leaf blight (Cercospora carotae); assay: Greenhouse disease severity on MON89788, Cercospora leaf blight; type: in vivo; design: key to Cercospora Leaf Blight disease severity (DS): 1 = no symptoms; 2 = ≤10% leaf infected … 9 = >85% leaf infected; details: 1×, 2× or 3×; 1 DBI, 1 DAI and 4 DAI
# Experimental: as §1
# Cercospora leaf blight = assay: as above; type: in vivo, Cercospora carotae; design: key to Cercospora Leaf Blight disease severity (DS): 1 = no symptoms; 2 = ≤10% leaf infected … 9 = >85% leaf infected; details: 1-9 scale
# Experimental: as §1
# [4] = test system: Frogeye Leafspot (Cercospora sojina); assay: Greenhouse disease severity on MON89788, Frogeye Leafspot; type: in vivo; design: key to Frogeye disease severity (DS): 1 = no symptoms; 2 = ≤10% leaf infected … 9 = >85% leaf infected; details: for Frogeye disease severity (DS): 1-9 scale
# Experimental: as §1
# powdery mildew disease = assay: Powdery mildew disease control on MON89788; type: in vivo, Microsphaera diffusa; details: for DS Mean (powdery mildew): treated 1 DBI, no spray control 4.65
# Source text: The mean disease severity score for the no spray control was 4.65, the glyphosate treatments provided a high level of disease control at all treatment rates.
# [5] = 1×, 2× or 3×, 1 DBI, 1 DAI and 4 DAI
structure (smiles),measurement,setting,value
"O=C(O)CNCP(=O)(O)O [glyphosate, N-phosphonomethylglycine]",Area Under Disease Progress Curve (AUDPC),[1]; 2× rate,lower compared to other treatments
same,disease progression (AUDPC),[1]; 2× rate post-sporulation,reduced
same,Area Under Disease Progress Curve (AUDPC),[1]; 3× rate,lower compared to other treatments
same,disease progression (AUDPC),[1]; all glyphosate treatments at 5DAI,reduced
same,ASR sporulation,[1]; post-disease development/sporulation treatments,appeared to arrest sporulation
same,levels of ASR infection and disease,"Asian Soybean Rust (ASR); 1×, 2×, 3× at 6 DBI or 9 DAI, all except 1× at 6 DBI, collected 17 DAI",lower levels of ASR infection and disease
same,rate of ASR disease development,Asian Soybean Rust (ASR); pre-inoculation treatments,appeared to slow the rate of disease development
same,levels of ASBR,Asian Soybean Rust (ASR); split treatments (1× pre+1× post-inoculation),reduced levels of ASBR similar to single 2× and 3× pre- or post-inoculation
same,Aerial Blight disease severity (DS),"[2]; 1 day post inoculation, 1X",5.0
same,Aerial Blight disease severity (DS),"[2]; 1 day post inoculation, 2X",6.4
same,Aerial Blight disease severity (DS),"[2]; 1 day post inoculation, 3X",6.9
same,Aerial Blight disease severity (DS),"[2]; 1 day pre inoculation, 1X",7.1
same,Aerial Blight disease severity (DS),"[2]; 1 day pre inoculation, 3X",8.0
same,Aerial Blight disease severity (DS),"[2]; 4 days post inoculation, 1X",7.6
same,Aerial Blight disease severity (DS),"[2]; 4 days post inoculation, 2X",4.4
same,Aerial Blight disease severity (DS),"[2]; 4 days post inoculation, 3X",7.9
same,"disease severity control, Aerial blight",[2]; [5],preventative and curative disease severity control
same,"disease severity control, Cercospora leaf blight",[3],preventative and curative disease severity control
same,Cercospora Leaf Blight disease severity (DS),"Cercospora leaf blight; 1 day post inoculation, 1X",2.8
same,Cercospora Leaf Blight disease severity (DS),"Cercospora leaf blight; 1 day post inoculation, 2X",6.4
same,Cercospora Leaf Blight disease severity (DS),"Cercospora leaf blight; 1 day post inoculation, 3X",6.5
same,Cercospora Leaf Blight disease severity (DS),"Cercospora leaf blight; 1 day pre inoculation, 1X",2.8
same,Cercospora Leaf Blight disease severity (DS),"Cercospora leaf blight; 1 day pre inoculation, 2X",6.1
same,Cercospora Leaf Blight disease severity (DS),"Cercospora leaf blight; 1 day pre inoculation, 3X",3.8
same,Cercospora Leaf Blight disease severity (DS),"Cercospora leaf blight; 4 days post inoculation, 1X",3.3
same,Cercospora Leaf Blight disease severity (DS),"Cercospora leaf blight; 4 days post inoculation, 2X",3.2
same,Cercospora Leaf Blight disease severity (DS),"Cercospora leaf blight; 4 days post inoculation, 3X",4.9
same,Frogeye disease severity (DS),"[4]; 1 day post inoculation, 1X",3.4
same,Frogeye disease severity (DS),"[4]; 1 day post inoculation, 2X",3.3
same,Frogeye disease severity (DS),"[4]; 1 day post inoculation, 3X",7.2
same,Frogeye disease severity (DS),"[4]; 1 day pre inoculation, 1X",2.7
same,Frogeye disease severity (DS),"[4]; 1 day pre inoculation, 2X",3.7
same,Frogeye disease severity (DS),"[4]; 1 day pre inoculation, 3X",3.8
same,Frogeye disease severity (DS),"[4]; 4 days post inoculation, 1X",3.7
same,Frogeye disease severity (DS),"[4]; 4 days post inoculation, 2X",5.3
same,Frogeye disease severity (DS),"[4]; 4 days post inoculation, 3X",2.3
same,"disease severity control, Frogeye Leafspot",[4]; [5],preventative and curative disease severity control
same,DS Mean (powdery mildew),powdery mildew disease; 0.75 lb ae/a (1X),1
same,DS Mean (powdery mildew),powdery mildew disease; 1.5 lb ae/a (2X),1
same,DS Mean (powdery mildew),powdery mildew disease; 2.25 lb ae/a (3X),1
same,control of powdery mildew disease,powdery mildew disease; treated 1 DBI with any of the three rates,high level of control
